In PubChem BioAssay AID1963451 (Molecular Pharmacology Branch, DTP, NCI, 2024):

System: 521955-158-R6-J3-PDC complex spheroid growth, % test/control
Assay: Anticancer human tumor 521955-158-R6-J3-PDC patient-derived pancreatic carcinoma cell line growth inhibition [Asc]
Details: for IC50: curve of first compound; for viability, T/C: stronger effect = lower value
Description: Multicellular complex tumor spheroid response to apoptosis pathway targeting inhibitors Alrizomadlin, Pelcitoclax, and Dasminapant in combination with a variety of drugs and investigational agents in selected tumor cell lines
The MDM2 inhibitor alrizomadlin, the Bcl-2/Bcl-xL inhibitor pelcitoclax, and the IAPs inhibitor dasminapant were evaluated both individually and in combination with standard of care and investigational anticancer small molecules within a complex spheroid model of solid tumors. . Complex spheroids include a stromal component modeled by human endothelial cells (HUVEC) and fibroblasts modeled by human mesenchymal stem cells (MSCs). The concentration ranges selected for each drug and investigational agent were based upon clinically achievable concentrations if the clinical Cmax of the agent was known.
Compounds. The drugs and investigational agents: alrizomadlin (APG-115; NSC831270), pelcitoclax (APG-1252; NSC835773), dasminapant (APG-1387;NSC834197), TAK-243 (NSC785004), copanlisib (NSC809693), olaparib (NSC753686), talazoparib (NSC767125), cobimetinib (NSC 768068), eltanexor (KPT-8602, NSC 794443), abemaciclib (NSC 768073), sotorasib (NSC818433), adagrasib (NSC 831453), MRTX-1133 (NSC 836407), Iadademestat (ORY1001, NSC 806812), and RMC-4630 (NSC839698), were obtained from the NCI Developmental Therapeutics Program Chemical Repository. The FDA-approved anticancer drug set is available from the Developmental Therapeutics Program at https://dtp.cancer.gov/organization/dscb/obtaining/available plates.htm. […] The stock solutions were prepared in dimethyl sulfoxide (DMSO, Sigma-Aldrich, St. Louis, MO, cat. D2650) at 800-fold the tested concentration and stored at -70 degrees C prior to their use. All drugs and investigational agents were tested over a range starting from a high concentration at or near the clinical Cmax and decreasing in half-log increments. If the clinical Cmax for an agent had not been determined, the highest concentration tested was 10 microM.
The patient-derived cancer (PDC) cell lines include five colon adenocarcinomas: 186277-243-T-J2-PDC, 616215-338-R-J1-PDC, 439559-082-T-J2-PDC, 463943-066-T-J2-PDC, and 519858-162-T-J1-PDC; three pancreatic carcinomas: 323965-272-R-J2-PDC, 521955-158-R6-J3-PDC, and 521955-158-R2-J5-PDC; two uterine sarcomas: 327498-152-R-J2-PDC and 993429-296-R-J1-PDC; two rhabdomyosarcomas: 755483-174-R-J1-PDC and 772245-204-R-J1-PDC; two soft tissue sarcomas: 126254-015-R-J1-PDC and 494315-158-R-J1-PDC; two malignant fibrous histiocytomas: 317291-083-R-J1-PDC and 596521-263-R-J1-PDC; two breast carcinomas: 171881-019-R-J1-PDC and 885512-296-R-J2-PDC; and one ovarian carcinoma: 6556581-035-R-J-PDC were obtained from the NCI PDMR, (https://pdmr.cancer.gov). The established cell lines HSSY-2 synovial sarcoma (RRID:CVCL 8719), SYO-1 synovial sarcoma (RRID:CVCL_7146), MPNST malignant peripheral neural sheath tumor were obtained from the Sloan Kettering Institute. The following established cell lines were purchased from the American Type Culture Collection (ATCC, Manassas, VA), Sor the received from the NCI repository:, PANC-1 pancreatic carcinoma (CRL-1469, RRID:CVCL_0480), OVCAR-5 ovarian carcinoma (RRID:CVCL_1628), OVCAR-8 ovarian carcinoma (RRID:CVCL_1629), , MCF-7 breast carcinoma (CRL-12584, RRID:CVCL_0031), MDA-MB-231 breast carcinoma (CRL-12532, RRID:CVCL_0062), NCI-H1876 small cell lung carcinoma (CRL-5902, RRID:CVCL_1503), NCI-H510A small cell lung carcinoma (HTB-184, RRID:CVCL_1565), NCI-H1417 (CRL-5869, RRID:CVCL_1469), and NCI-H196 small cell lung carcinoma (CRL-5823, RRID:CVCL_1509). Dr. Peter Houghton (Greehey Children's Cancer Research Institute, University of Texas Health Science Center, San Antonio, TX) provided Rh-18 rhabdomyosarcoma (RRID:CVCL_1659). Pooled donor human umbilical vein endothelial cells (HUVEC, Lonza, cat. CC-2519) and human mesenchymal stem cells (hMSC, Lonza, cat. PT-2501) were purchased from Lonza (Walkersville, MD).
Cell Culture. […]
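Note: spheroids exposed to compounds for 7 days.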
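Throughout, for viability, T/C: 100% = DMSO vehicle control wells.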

Cn1ncnc1[C@H]1c2n[nH]c(=O)c3cc(F)cc(c23)N[C@@H]1c1ccc(F)cc1 + CCN1C(C(=O)NC23CCC(C(=O)O)(CC2)CC3)C(c2cccc(Cl)c2F)C2(C(=O)Nc3cc(Cl)ccc32)C12CCCCC2
IC50 (second compound 0.00949 µM): > 0.1 µM | IC50 (second compound 0.03 µM): > 0.1 µM | IC50 (second compound 0.0949 µM): > 0.1 µM | IC50 (second compound 0.3 µM): > 0.1 µM | IC50 (second compound 0.949 µM): > 0.1 µM | IC50 (second compound 3 µM): > 0.1 µM | viability, T/C (second compound 0.00949 µM, first compound 0.000316 µM): 114% | viability, T/C (second compound 0.00949 µM, first compound 0.001 µM): 102% | viability, T/C (second compound 0.00949 µM, first compound 0.00316 µM): 98.8% | viability, T/C (second compound 0.00949 µM, first compound 0.01 µM): 91.7% | viability, T/C (second compound 0.00949 µM, first compound 0.0316 µM): 78.9% | viability, T/C (second compound 0.00949 µM, first compound 0.1 µM): 91.2% | viability, T/C (second compound 0.03 µM, first compound 0.000316 µM): 100% | viability, T/C (second compound 0.03 µM, first compound 0.001 µM): 94.1% | viability, T/C (second compound 0.03 µM, first compound 0.00316 µM): 100% | viability, T/C (second compound 0.03 µM, first compound 0.01 µM): 99.5% | viability, T/C (second compound 0.03 µM, first compound 0.0316 µM): 97.5% | viability, T/C (second compound 0.03 µM, first compound 0.1 µM): 94.6% | viability, T/C (second compound 0.0949 µM, first compound 0.000316 µM): 95.7% | viability, T/C (second compound 0.0949 µM, first compound 0.001 µM): 94.8% | viability, T/C (second compound 0.0949 µM, first compound 0.00316 µM): 101% | viability, T/C (second compound 0.0949 µM, first compound 0.01 µM): 102% | viability, T/C (second compound 0.0949 µM, first compound 0.0316 µM): 94.3% | viability, T/C (second compound 0.0949 µM, first compound 0.1 µM): 98.9% | viability, T/C (second compound 0.3 µM, first compound 0.000316 µM): 97.2% | viability, T/C (second compound 0.3 µM, first compound 0.001 µM): 97.7% | viability, T/C (second compound 0.3 µM, first compound 0.00316 µM): 99.4% | viability, T/C (second compound 0.3 µM, first compound 0.01 µM): 80.5% | viability, T/C (second compound 0.3 µM, first compound 0.0316 µM): 98.3% | viability, T/C (second compound 0.3 µM, first compound 0.1 µM): 102% | viability, T/C (second compound 0.949 µM, first compound 0.000316 µM): 104% | viability, T/C (second compound 0.949 µM, first compound 0.001 µM): 100% | viability, T/C (second compound 0.949 µM, first compound 0.00316 µM): 114% | viability, T/C (second compound 0.949 µM, first compound 0.01 µM): 87.5% | viability, T/C (second compound 0.949 µM, first compound 0.0316 µM): 96.3% | viability, T/C (second compound 0.949 µM, first compound 0.1 µM): 99.8% | viability, T/C (second compound 3 µM, first compound 0.000316 µM): 100% | viability, T/C (second compound 3 µM, first compound 0.001 µM): 90.4% | viability, T/C (second compound 3 µM, first compound 0.00316 µM): 108% | viability, T/C (second compound 3 µM, first compound 0.01 µM): 82% | viability, T/C (second compound 3 µM, first compound 0.0316 µM): 98.6% | viability, T/C (second compound 3 µM, first compound 0.1 µM): 99%
